Where a name gives a salt, the structure may show the parent alone.
Tests used:
Assay in all cases: In vitro antibacterial activity (MIC)
Type in all cases: cell-based
E. cloacae 9295 = settings: Enterobacter cloacae, 9295, E. cloacae 9295; read-out: MIC
Outline: (§1)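 Twofold-style dilution series (128 to 0.008 μg/ml) made in Mueller-Hinton broth, dispensed, then inoculated with 1.5 μl of a 10^-2 overnight-culture dilution. Plates sealed, held overnight at 37° C, inspected with a viewer.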

E. aerogenes 83 = settings: Klebsiella aerogenes, 83, E. aerogenes 83; read-out: MIC
Outline: as §1

S. pneumoniae 6302 = settings: Streptococcus pneumoniae, 6302, S. pneumoniae 6302; read-out: MIC
Outline: as §1

P. aeruginosa 503-820 = settings: Pseudomonas aeruginosa, 503820; P. aeruginosa 503-820; read-out: MIC
Outline: as §1

P. vulgaris 100 = settings: Proteus vulgaris; P. vulgaris 100; read-out: MIC
Outline: as §1

K. pneumoniae 503-964 = settings: Klebsiella pneumoniae, 503964; K. pneumoniae 503-964; read-out: MIC
Outline: as §1

P. mirabilis 620A = settings: Proteus mirabilis, 620A, P. mirabilis 620A; read-out: MIC
Outline: as §1

P. aeruginosa 5700 = settings: Pseudomonas aeruginosa, 5700, P. aeruginosa 5700; read-out: MIC
Outline: as §1

E. cloacae P99 = settings: Enterobacter cloacae, P99, E. cloacae P99
Outline: as §1

S. marcescens S5 = settings: Serratia marcescens, S5, S. marcescens S5; read-out: MIC
Outline: as §1

S. aureus Giorgio = settings: Staphylococcus aureus, S. aureus Giorgio; read-out: MIC
Outline: as §1

P. aeruginosa 8780 = settings: Pseudomonas aeruginosa; P. aeruginosa 8780; read-out: MIC
Outline: as §1

C. freundii CDC6 = settings: Citrobacter freundii, CDC6, C. freundii CDC6; read-out: MIC
Outline: as §1

S. pyogenes 4 = settings: Streptococcus pyogenes, 4, S. pyogenes 4; read-out: MIC
Outline: as §1

S. pneumoniae SC = settings: Streptococcus pneumoniae, read-out: MIC
Outline: as §1

E. coli R-563 = settings: Escherichia coli, R563, E. coli R-563; read-out: MIC
Outline: as §1

P. aeruginosa 6148B = settings: Pseudomonas aeruginosa, read-out: MIC
Outline: as §1

C. diversus CDC 1663-72 = settings: Citrobacter koseri, CDC166372; C. diversus CDC 1663-72; read-out: MIC
Outline: as §1

E. cloacae 5699 = settings: Enterobacter cloacae, 5699, E. cloacae 5699; read-out: MIC
Outline: as §1

P. aeruginosa 8710 = settings: Pseudomonas aeruginosa; P. aeruginosa 8710; read-out: MIC
Outline: as §1

S. faecalis C1 = settings: Enterococcus faecalis; S. faecalis C1; read-out: MIC
Outline: as §1

E. aerogenes 503-478 = settings: Klebsiella aerogenes, 503478, E. aerogenes 503-478; read-out: MIC
Outline: as §1

E. coli 48 = settings: Escherichia coli, 48, E. coli 48; read-out: MIC
Outline: as §1

E. coli 5152 = settings: Escherichia coli, 5152, E. coli 5152; read-out: MIC
Outline: as §1

E. coli 4 = settings: Escherichia coli, 4, E. coli 4; read-out: MIC
Outline: as §1

K. pneumoniae 5096 = settings: Klebsiella pneumoniae; K. pneumoniae 5096; read-out: MIC
Outline: as §1

S. pneumoniae 6301 = settings: Streptococcus pneumoniae, 6301, S. pneumoniae 6301; read-out: MIC
Outline: as §1

S. pyogenes 503-782 = settings: Streptococcus pyogenes, 503782; S. pyogenes 503-782; read-out: MIC
Outline: as §1

E. coli 387-1 = settings: Escherichia coli, 3871, E. coli 387-1; read-out: MIC
Outline: as §1

E. coli 503-455 = settings: Escherichia coli, 503455, E. coli 503-455; read-out: MIC
Outline: as §1

S. marcescens S147 = settings: Serratia marcescens; S. marcescens S147; read-out: MIC
Outline: as §1

K. pneumoniae 4964 = settings: Klebsiella pneumoniae, 4964, K. pneumoniae 4964; read-out: MIC
Outline: as §1

E. cloacae 9570A = settings: Enterobacter cloacae, read-out: MIC
Outline: as §1

E. cloacae 214 = settings: Enterobacter cloacae, 214, E. cloacae 214; read-out: MIC
Outline: as §1

K. pneumoniae 35 = settings: Klebsiella pneumoniae; K. pneumoniae 35; read-out: MIC
Outline: as §1

S. marcescens S4 = settings: Serratia marcescens, S4, S. marcescens S4; read-out: MIC
Outline: as §1

S. marcescens S2 = settings: Serratia marcescens; S. marcescens S2; read-out: MIC
Outline: as §1

S. marcescens S714 = settings: Serratia marcescens, S714, S. marcescens S714; read-out: MIC
Outline: as §1

S. marcescens S1 = settings: Serratia marcescens, S1, S. marcescens S1; read-out: MIC
Outline: as §1

S. marcescens S3 = settings: Serratia marcescens; S. marcescens S3; read-out: MIC
Outline: as §1

S. schottmuelleri = settings: read-out: MIC
Outline: as §1

P. mirabilis 190 = settings: Proteus mirabilis, 190, P. mirabilis 190; read-out: MIC
Outline: as §1

C. freundii 8ASM = settings: Citrobacter freundii, 8ASM, C. freundii 8ASM; read-out: MIC
Outline: as §1

P. vulgaris 101 = settings: Proteus vulgaris, 101, P. vulgaris 101; read-out: MIC
Outline: as §1

P. mirabilis 90 = settings: Proteus mirabilis, 90, P. mirabilis 90; read-out: MIC
Outline: as §1

Work on `CC1(C)S[C@@H]2[C@H](N=CN3CCC(CC4=NCCN4)CC3)C(=O)N2[C@H]1C(=O)O` [M, [2S-(2alpha,5alpha,6beta)]-6-[[[4-[(4,5-dihydro-1H-imidazol-2-yl)methyl]-1-piperidinyl]methylene]amino]-3,3-dimethyl-7-oxo-4-thia-1-azabicyclo[3.2.0]heptane-2-carboxylic acid hydrochloride] yielded an MIC (E. cloacae 9295) of 0.5 µg/mL, an MIC (E. aerogenes 83) of 2 µg/mL and an MIC (S. pneumoniae 6302) of 1 µg/mL. The MIC (P. aeruginosa 503-820) was 64 µg/mL, the MIC (P. vulgaris 100) was 8 µg/mL and the MIC (K. pneumoniae 503-964) was 0.25 µg/mL. For the same molecule, the MIC (P. mirabilis 620A) was over 128 µg/mL, the MIC (P. aeruginosa 5700) was 0.125 µg/mL and the MIC (E. cloacae P99) was 0.062 µg/mL. The MIC (S. marcescens S5) was 1 µg/mL, the MIC (S. aureus Giorgio) was 2 µg/mL and the MIC (P. aeruginosa 8780) was 128 µg/mL. It also gave an MIC (C. freundii CDC6) of 0.125 µg/mL, an MIC (S. pyogenes 4) of 1 µg/mL and an MIC (S. pneumoniae SC) of 1 µg/mL. The MIC (E. coli R-563) was 0.062 µg/mL, the MIC (P. aeruginosa 6148B) was 32 µg/mL and the MIC (C. diversus CDC 1663-72) was 0.062 µg/mL. It also gave an MIC (E. cloacae 5699) of 0.25 µg/mL, an MIC (P. aeruginosa 8710) of 64 µg/mL and an MIC (S. faecalis C1) of 32 µg/mL. For the same molecule, the MIC (E. aerogenes 503-478) was 4 µg/mL, the MIC (E. coli 48) was 0.125 µg/mL and the MIC (E. coli 5152) was 16 µg/mL. It also gave an MIC (E. coli 4) of 0.062 µg/mL, an MIC (K. pneumoniae 5096) of over 128 µg/mL and an MIC (S. pneumoniae 6301) of 1 µg/mL. For the same molecule, the MIC (S. pyogenes 503-782) was 32 µg/mL, the MIC (E. coli 387-1) was 0.062 µg/mL and the MIC (E. coli 503-455) was 2 µg/mL. The MIC (S. marcescens S147) was 0.25 µg/mL, the MIC (K. pneumoniae 4964) was 2 µg/mL and the MIC (E. cloacae 9570A) was 0.25 µg/mL. The MIC (E. cloacae 214) was 0.25 µg/mL, the MIC (K. pneumoniae 35) was 1 µg/mL and the MIC (S. marcescens S4) was 1 µg/mL. The MIC (S. marcescens S2) was 0.25 µg/mL, the MIC (S. marcescens S714) was 0.5 µg/mL and the MIC (S. marcescens S1) was 0.25 µg/mL. It also gave an MIC (S. marcescens S3) of 0.125 µg/mL, an MIC (S. schottmuelleri) of 0.062 µg/mL and an MIC (P. mirabilis 190) of 0.5 µg/mL. The MIC (C. freundii 8ASM) was 0.062 µg/mL, the MIC (P. vulgaris 101) was 16 µg/mL and the MIC (P. mirabilis 90) was 0.5 µg/mL.

From patent publication US4605744A, “Imidazole derivatives” (Hoffmann-La Roche Inc., priority 1985, dated 1986)
